Source: patent US20110071141A1, “Pesticidial Condensed-Ring Aryl Compounds” (Bayer CropScience AG, priority 2008, published 2011)
Like-named read-outs stand apart in the source and are kept apart here.

Columns and labels:
Format in all cases: in vivo
Aulacophora femoralis = assay: whole plant or invertebrate; settings: in Cucumis sativus, 168 h, read-out: mortality (control efficacy)
Excerpt: The test solution has been prepared as described in biological test example 1.
Cucumber leaves were immersed in a test solution that had been diluted to a predetermined concentration with water. The leaves were air-dried and then put in a plastic cup containing sterilized black soil. 5 Aulacophora femoralis second instar larvae were released in the cup.

Musca domestica = assay: whole plant or invertebrate; settings: 48 h, read-out: activity (mortality in %)
Experimental: (§1) Solvent: dimethyl sulfoxide
Prior to the assay, a piece or kitchen sponge is soaked with a mixture of sugar and compound solution and placed into a container. 10 adults (Musca domestica) are placed into the container and closed with a perforated lid. After 2 days, mortality in % is determined. 100% means that all the flies have been killed; 0% means that none of the flies have been killed.

Ctenocephalides felis = assay: whole plant or invertebrate; settings: 48 h, read-out: activity (mortality in %)
Experimental: as §1
Approximately 10 to 15 adult unfed (Ctenocepahlides felis) are placed in flea chambers. […] The blood chamber is heated to 37° C. whereas the flea chamber is kept at room temperature. After 2 days, mortality in % is determined. 100% means that all the fleas have been killed; 0% means that none of the fleas have been killed.

Lucilia cuprina larvae = assay: whole plant or invertebrate; settings: 48 h, read-out: activity (mortality in %)
Experimental: as §1
Approximately 20-30 (Lucilia cuprina larvae) are transferred into a test tube containing 1 cm^3 of minced horse meat and 0.5 ml aqueous dilution of test compound. After 2 days, mortality in % is determined.

Boophilus microplus [1] = assay: Boophilus microplus test (dip); settings: Rhipicephalus microplus, 168 h, read-out: activity (mortality in %)
Experimental: as §1
Eight to ten adult engorged female Boophilus microplus ticks are placed in perforated plastic beakers and immersed in aqueous compound solution for one minute. Ticks are transferred to a filter paper in a plastic tray. Egg deposition of fertile eggs is monitored after. After 7 days, mortality in % is determined. 100% means that all the ticks have been killed; 0% means that none of the ticks have been killed.

Boophilus microplus [2] = assay: whole plant or invertebrate; settings: Rhipicephalus microplus, 168 h, read-out: activity (mortality in %; 100% means all eggs infertile)
Experimental: as §1
Five adult engorged female ticks (Boophilus microplus) are injected with compound solution into the abdomen. Ticks are transferred into replica plates and incubated in a climate chamber for a period of time. Egg deposition of fertile eggs is monitored. After 7 days, mortality in % is determined. 100% means that all eggs are infertile; 0% means that all eggs are fertile.

Spodoptera frugiperda = Spodoptera frugiperda test (spray application); settings: 168 h, application rate 500 g/ha, sprayed maize leaf sections, larvae, 7 days
Excerpt: Solvent: 78.0 parts by weight acetone • 1.5 parts by weight dimethylformamide Wetting agent 0.5 parts by weight alkylarylpolyglcolether
To produce a suitable preparation of the active compound, 1 part by weight of active compound is mixed with the stated amount of solvent and emulsifier, and the concentrate is dilutes with emulsifier-containing water to the desired concentration.
Maize (Zea mais) leaf sections are sprayed with a preparation of the active ingredient of the desired concentration. Once dry, the leaf sections are infested with fall armyworm larvae (Spodoptera frugiperda). After 7 days, mortality in % is determined. 100% means that all caterpillars have been killed and 0% means that none of the caterpillars have been killed.

Phaedon cochleariae = Phaedon cochleariae test (spray application); settings: in Brassica rapa, foliar, 168 h, read-out: activity (mortality in %)
Experimental: Solvent: 78.0 parts by weight of acetone • • 1.5 parts by weight of dimethylformamide Emulsifier: 0.5 parts by weight of alkylaryl polyglycolether
To produce a suitable preparation of active compound, 1 part by weight of active compound is mixed with the stated amount of solvent and emulsifier, and the concentrate is diluted with emulsifier-containing water to the desired concentration. Chinese cabbage (Brassica pekinesis) leaf-disks are sprayed with a preparation of the active ingredient of the desired concentration. Once dry, the leaf disks are infested with mustard beetle larvae (Phaedon cochleariae).
After 7 days, mortality in % is determined. 100% means that all beetle larvae have been killed and 0% means that none of the beetle larvae have been killed.

Tetranychus urticae = assay: Test on Tetranychus urticae (spray test); settings: active compound concentration 100 ppm; adult mites on pinto bean sprayed; 7 days
Experimental: The test solution has been prepared as described in biological test example 1. 50 to 100 adult Tetranychus urticae were placed on pinto bean leaves at true leaf stage having two main leaves that had been grown in a pot (6 cm diameter). After 1 day, a generous amount of the test solution which has been diluted with water to the predetermined concentration was sprayed thereto using a spray gun.
After keeping the pot in a green house for 7 days, acaricidal ratio was calculated. 100% means that all the mites have been killed; 0% means that none of the mites have been killed.

Row | SMILES | mortality at 100 ppm (Aulacophora femoralis) | mortality at 100 ppm (Musca domestica) | mortality at 100 ppm (Ctenocephalides felis; in Bos taurus) | mortality at 100 ppm (Lucilia cuprina larvae; in Equus caballus) | mortality at 0.02 mg (Boophilus microplus [2]) | also measured
1 | O=C1OCc2cc(C3=NOC(c4cc(Cl)cc(Cl)c4)(C(F)(F)F)C3)ccc21 (centres unmarked) [Example 1-2, 5-[5-(3,5-dichlorophenyl)-5-(trifluoromethyl)-4,5-dihydroisoxazol-3-yl]-2-benzofuran-1(3H)-one] | 100% | ≥ 80% | ≥ 80% | ≥ 80% | ≥ 80% | mortality at 100 ppm (Boophilus microplus [1]): ≥ 80%; mortality at 500 g/ha (Spodoptera frugiperda): ≥ 80%; mortality at 500 g/ha (Phaedon cochleariae): 80%
2 | O=C1c2ccc(C3=NOC(c4cc(Cl)cc(Cl)c4)(C(F)(F)F)C3)cc2CN1Cc1ccccn1 (centres unmarked) [Example 1-58] |  |  |  |  |  | mortality (acaricidal ratio) (Tetranychus urticae): at least 98%
3 | FC(F)(F)C1(c2cc(Cl)cc(Cl)c2)CC(c2ccc3c(c2)COC3)=NO1 (centres unmarked) [Example 1-131, 5-(3,5-dichlorophenyl)-3-(1,3-dihydro-2-benzofuran-5-yl)-5-(trifluoromethyl)-4,5-dihydroisoxazole] | 100% | ≥ 80% | ≥ 80% | ≥ 80% | ≥ 80% | 
4 | CC(=O)N1Cc2ccc(C3=NOC(c4cc(Cl)cc(Cl)c4)(C(F)(F)F)C3)cc2C1 (centres unmarked) [Example 1-151, 1-{5-[5-(3,5-dichlorophenyl)-5-(trifluoromethyl)-4,5-dihydroisoxazol-3-yl]-1,3-dihydro-2H-isoindol-2-yl}ethanone] | 100% |  |  | ≥ 80% | ≥ 80% | 
5 | CC(=O)N1Cc2cc(C3=NOC(c4cc(Cl)cc(Cl)c4)(C(F)(F)F)C3)ccc2C1=O (centres unmarked) [Example 1-221, 2-acetyl-5-[5-(3,5-dichlorophenyl)-5-(trifluoromethyl)-4,5-dihydroisoxazol-3-yl]-2,3-dihydro-1H-isoindol-1-one] | 100% |  |  |  |  | 
6 | N=C1OCc2cc(C3=NOC(c4cc(Cl)cc(Cl)c4)(C(F)(F)F)C3)ccc21 (centres unmarked) [Example 1-232, 5-[5-(3,5-dichlorophenyl)-5-(trifluoromethyl)-4,5-dihydroisoxazol-3-yl]-2-benzofuran-1(3H)-imine] | 100% | ≥ 80% | ≥ 80% | ≥ 80% | ≥ 80% | 
7 | CC(=O)/N=C1\c2ccc(C3=NOC(c4cc(Cl)cc(Cl)c4)(C(F)(F)F)C3)cc2CN1Cc1ccccn1 (centres unmarked) [Example 1-235, N-[(1E)-5-[5-(3,5-dichlorophenyl)-5-(trifluoromethyl)-4,5-dihydroisoxazol-3-yl]-2-(pyridin-2-ylmethyl)-2,3-dihydro-1H-isoindol-1-ylinden]acetamide] |  | ≥ 80% | ≥ 80% | ≥ 80% | ≥ 80% | 
8 | N#Cc1ccc2cc(C3=NOC(c4cc(Cl)cc(Cl)c4)(C(F)(F)F)C3)ccc2n1 (centres unmarked) [Example 1-255, 6-[5-(3,5-dichlorophenyl)-5-(trifluoromethyl)-4,5-dihydroisoxazol-3-yl]quinolin-2-carbonitrile] |  | ≥ 80% | ≥ 80% | ≥ 80% | ≥ 80% | 
9 | CC(=O)NC1CCc2cc(C3=NOC(c4cc(Cl)cc(Cl)c4)(C(F)(F)F)C3)ccc21 (centres unmarked) [Example 3-3, N-{5-[5-(3,5-dichlorophenyl)-5-(trifluoromethyl)-4,5-dihydroisoxazol-3-yl]-2,3-dihydro-1H-inden-1-yl}acetamide] | 100% | ≥ 80% | ≥ 80% | ≥ 80% | ≥ 80% | mortality at 100 ppm (Boophilus microplus [1]): ≥ 80%
10 | CCNC(=O)NC1CCc2cc(C3=NCC(c4cc(Cl)cc(Cl)c4)(C(F)(F)F)C3)ccc21 (centres unmarked) [Example 3-112, 1-{5-[3-(3,5-dichlorophenyl)-3-(trifluoromethyl)-3,4-dihydro-2H-pyrrol-5-yl]-2,3-dihydro-1H-inden-1-yl}-3-ethylurea] | 100% |  |  |  |  | mortality at 100 ppm (Musca domestica; application rate 100 ppm, adults, 2 days): ≥ 80%; mortality at 100 ppm (Ctenocephalides felis; application rate 100 ppm in cattle blood, adult unfed fleas, 2 days): ≥ 80%; mortality at 100 ppm (Lucilia cuprina larvae; application rate 100 ppm, larvae in minced horse meat, 2 days): ≥ 80%; mortality at 100 ppm (Boophilus microplus [1]; application rate 100 ppm, adult engorged female ticks immersed one minute, 7 days): ≥ 80%; mortality at 0.02 mg (Boophilus microplus [2]; application rate 20 μg/animal injected, adult engorged female ticks, 7 days): ≥ 80%
11 | NC1CCCc2cc(C3=NOC(c4cc(Cl)cc(Cl)c4)(C(F)(F)F)C3)ccc21 (centres unmarked) [Example 3-211, 6-[5-(3,5-dichlorophenyl)-5-(trifluoromethyl)-4,5-dihydroisoxazol-3-yl]-1,2,3,4-tetrahydronaphthalen-1-amine] | 100% |  |  |  | ≥ 80% | 
12 | CCNC(=O)N1CCc2cc(C3=NOC(c4cc(Cl)cc(Cl)c4)(C(F)(F)F)C3)ccc21 (centres unmarked) [Example 3-638, 5-[5-(3,5-dichlorophenyl)-5-(trifluoromethyl)-4,5-dihydroisoxazol-3-yl]-N-ethyl-2,3-dihydro-1H-indol-1-carboxamide] | 100% | ≥ 80% | ≥ 80% | ≥ 80% | ≥ 80% | 
